# Source: patent US20160367623A1, “AGONISTS OF GUANYLATE CYCLASE USEFUL FOR THE TREATMENT OF GASTROINTESTINAL DISORDERS, INFLAMMATION, CANCER AND OTHER DISORDERS” (priority 2015, published 2016)
# Bridge positions count the residues as written; N and C are the ends. Ends that are not written are not given here.
# System: patients with chronic idiopathic constipation (CIC)
# Experiment: Second phase 3 CIC trial: CSBM weekly responders by week
# Format: in vivo, human
# Conditions: MRA
# Text: Both trials include a two-week pre-treatment baseline period, a 12-week treatment period, and a two-week post-treatment period. The phase 3 CIC program was designed to support regulatory submission in the U. S.
# The primary endpoint for both trials is the proportion of durable overall responders (%), which is the current regulatory endpoint required for U.S. approval in CIC. The FDA has defined a durable overall responder as a patient who fulfills both ≧3 complete spontaneous bowel movements (CSBMs) per week plus an increase of ≧1 CSBM from baseline in the same week, for 9 out of the 12 treatment weeks. In addition, the same patient must be an overall responder for at least 3 of the last 4 treatment weeks in order to be considered a durable overall responder.
# Patients were selected using Rome 3 criteria modified for CIC and had (1) fewer than 3 defecations per week, (2) loose stools occurring rarely without laxatives, (3) inadequate criteria for irritable bowel syndrome with constipation (IBS-C), and (4) at least two of the following applied to at least 25% of defecations: (a) straining during evacuation, (b) lumpy or hard stools, (c) sensation of anorectal obstruction or blockage. Rome 3 requires patients to fulfill the criteria for the last 3 months with symptom onset at least 6 months prior to diagnosis.
# [1] = Week 9, Active Combined, ITT Population-Excluding Duplicate Patients
# [2] = Week 9, Active Combined, ITT Population
# [3] = Week 10, 3 mg, ITT Population-Excluding Duplicate Patients
# [4] = Week 10, 6 mg, ITT Population-Excluding Duplicate Patients
# [5] = Week 10, Active Combined, ITT Population-Excluding Duplicate Patients
# [6] = Week 10, Active Combined, ITT Population
# [7] = Week 11, 3 mg, All Randomized (includes Duplicate Patients)
# [8] = Week 11, 3 mg, ITT Population-Excluding Duplicate Patients
# [9] = Week 11, 6 mg, All Randomized (includes Duplicate Patients)
# [10] = Week 11, 6 mg, ITT Population-Excluding Duplicate Patients
# [11] = Week 11, Active Combined, All Randomized (includes Duplicate Patients)
# [12] = Week 11, Active Combined, ITT Population-Excluding Duplicate Patients
# [13] = Week 11, Active Combined, ITT Population
# [14] = Week 12, 3 mg, All Randomized (includes Duplicate Patients)
# [15] = Week 12, 3 mg, ITT Population-Excluding Duplicate Patients
# [16] = Week 12, 6 mg, All Randomized (includes Duplicate Patients)
# [17] = Week 12, 6 mg, ITT Population-Excluding Duplicate Patients
# [18] = Week 12, Active Combined, All Randomized (includes Duplicate Patients)
# [19] = Week 12, Active Combined, ITT Population-Excluding Duplicate Patients
# [20] = Week 12, Active Combined, ITT Population
substance,measurement,setting,value
"Asn^1-Asp^2-Glu^3-Cys^4-Glu^5-Leu^6-Cys^7-Val^8-Asn^9-Val^10-Ala^11-Cys^12-Thr^13-Gly^14-Cys^15-Leu^16 (NDECELCVNVACTGCL; disulfide 4-12, 7-15) [Plecanatide, uroguanylin analogue, guanylate cyclase-C agonist; (C4:C12, C7:C15) bicycle peptide]",Odds Ratio (adjusted),"Week 9, 6 mg vs placebo, ITT Population",0.727
same,"CSBM Weekly Responders, n (%)",[1],286 (32.6) n (%)
same,"Non-Responders, n (%)",[1],591 (67.4) n (%)
same,"CSBM Weekly Responders, n (%)",[2],288 (32.3) n (%)
same,"Non-Responders, n (%)",[2],604 (67.7) n (%)
same,Difference in Proportions (adjusted),"Week 10, 3 mg minus placebo, All Randomized (includes Duplicate Patients)",0.067
same,Odds Ratio (adjusted),"Week 10, 3 mg vs placebo, All Randomized (includes Duplicate Patients)",0.708
same,"Non-Responders, n (%)","Week 10, 3 mg, All Randomized (includes Duplicate Patients)",328 (69.8) n (%)
same,"CSBM Weekly Responders, n (%)","Week 10, 3 mg, ITT Population",137 (30.9) n (%)
same,"Non-Responders, n (%)","Week 10, 3 mg, ITT Population",306 (69.1) n (%)
same,"CSBM Weekly Responders, n (%)",[3],136 (31.3) n (%)
same,"Non-Responders, n (%)",[3],298 (68.7) n (%)
same,Difference in Proportions (adjusted),"Week 10, 6 mg minus placebo, All Randomized (includes Duplicate Patients)",0.097
same,Odds Ratio (adjusted),"Week 10, 6 mg vs placebo, All Randomized (includes Duplicate Patients)",0.619
same,"Non-Responders, n (%)","Week 10, 6 mg, All Randomized (includes Duplicate Patients)",315 (66.9) n (%)
same,"CSBM Weekly Responders, n (%)","Week 10, 6 mg, ITT Population",154 (34.3) n (%)
same,"Non-Responders, n (%)","Week 10, 6 mg, ITT Population",295 (65.7) n (%)
same,"CSBM Weekly Responders, n (%)",[4],153 (34.5) n (%)
same,"Non-Responders, n (%)",[4],290 (65.5) n (%)
same,"Non-Responders, n (%)","Week 10, Active Combined, All Randomized (includes Duplicate Patients)",643 (68.3) n (%)
same,Difference in Proportions (adjusted),"Week 10, 3 mg minus placebo, ITT Population-Excluding Duplicate Patients",0.064
same,Difference in Proportions (adjusted),"Week 10, 3 mg minus placebo, ITT Population",0.062
same,Odds Ratio (adjusted),"Week 10, 3 mg vs placebo, ITT Population-Excluding Duplicate Patients",0.729
same,Odds Ratio (adjusted),"Week 10, 3 mg vs placebo, ITT Population",0.734
same,Difference in Proportions (adjusted),"Week 10, 6 mg minus placebo, ITT Population-Excluding Duplicate Patients",0.096
same,Difference in Proportions (adjusted),"Week 10, 6 mg minus placebo, ITT Population",0.096
same,Odds Ratio (adjusted),"Week 10, 6 mg vs placebo, ITT Population-Excluding Duplicate Patients",0.630
same,Odds Ratio (adjusted),"Week 10, 6 mg vs placebo, ITT Population",0.629
same,"CSBM Weekly Responders, n (%)",[5],289 (33.0) n (%)
same,"Non-Responders, n (%)",[5],588 (67.0) n (%)
same,"CSBM Weekly Responders, n (%)",[6],291 (32.6) n (%)
same,"Non-Responders, n (%)",[6],601 (67.4) n (%)
same,Difference in Proportions (adjusted),"Week 11, 3 mg minus placebo, All Randomized (includes Duplicate Patients)",0.089
same,Odds Ratio (adjusted),"Week 11, 3 mg vs placebo, All Randomized (includes Duplicate Patients)",0.643
same,"CSBM Weekly Responders, n (%)",[7],153 (32.6) n (%)
same,"Non-Responders, n (%)",[7],317 (67.4) n (%)
same,"CSBM Weekly Responders, n (%)","Week 11, 3 mg, ITT Population",147 (33.2) n (%)
same,"Non-Responders, n (%)","Week 11, 3 mg, ITT Population",296 (66.8) n (%)
same,"CSBM Weekly Responders, n (%)",[8],147 (33.9) n (%)
same,"Non-Responders, n (%)",[8],287 (66.1) n (%)
same,Difference in Proportions (adjusted),"Week 11, 6 mg minus placebo, All Randomized (includes Duplicate Patients)",0.082
same,Odds Ratio (adjusted),"Week 11, 6 mg vs placebo, All Randomized (includes Duplicate Patients)",0.664
same,"CSBM Weekly Responders, n (%)",[9],150 (31.8) n (%)
same,"Non-Responders, n (%)",[9],321 (68.2) n (%)
same,"CSBM Weekly Responders, n (%)","Week 11, 6 mg, ITT Population",145 (32.3) n (%)
same,"Non-Responders, n (%)","Week 11, 6 mg, ITT Population",304 (67.7) n (%)
same,"CSBM Weekly Responders, n (%)",[10],144 (32.5) n (%)
same,"Non-Responders, n (%)",[10],299 (67.5) n (%)
same,"CSBM Weekly Responders, n (%)",[11],303 (32.2) n (%)
same,"Non-Responders, n (%)",[11],638 (67.8) n (%)
same,Difference in Proportions (adjusted),"Week 11, 3 mg minus placebo, ITT Population-Excluding Duplicate Patients",0.089
same,Difference in Proportions (adjusted),"Week 11, 3 mg minus placebo, ITT Population",0.086
same,Odds Ratio (adjusted),"Week 11, 3 mg vs placebo, ITT Population-Excluding Duplicate Patients",0.649
same,Odds Ratio (adjusted),"Week 11, 3 mg vs placebo, ITT Population",0.654
same,Difference in Proportions (adjusted),"Week 11, 6 mg minus placebo, ITT Population-Excluding Duplicate Patients",0.076
same,Difference in Proportions (adjusted),"Week 11, 6 mg minus placebo, ITT Population",0.078
same,Odds Ratio (adjusted),"Week 11, 6 mg vs placebo, ITT Population-Excluding Duplicate Patients",0.690
same,Odds Ratio (adjusted),"Week 11, 6 mg vs placebo, ITT Population",0.68
same,"CSBM Weekly Responders, n (%)",[12],291 (33.2) n (%)
same,"Non-Responders, n (%)",[12],586 (66.8) n (%)
same,"CSBM Weekly Responders, n (%)",[13],292 (32.7) n (%)
same,"Non-Responders, n (%)",[13],600 (67.3) n (%)
same,Difference in Proportions (adjusted),"Week 12, 3 mg minus placebo, All Randomized (includes Duplicate Patients)",0.068
same,Odds Ratio (adjusted),"Week 12, 3 mg vs placebo, All Randomized (includes Duplicate Patients)",0.711
same,"CSBM Weekly Responders, n (%)",[14],145 (30.9) n (%)
same,"Non-Responders, n (%)",[14],325 (69.1) n (%)
same,"CSBM Weekly Responders, n (%)","Week 12, 3 mg, ITT Population",140 (31.6) n (%)
same,"Non-Responders, n (%)","Week 12, 3 mg, ITT Population",303 (68.4) n (%)
same,"CSBM Weekly Responders, n (%)",[15],140 (32.3) n (%)
same,"Non-Responders, n (%)",[15],294 (67.7) n (%)
same,Difference in Proportions (adjusted),"Week 12, 6 mg minus placebo, All Randomized (includes Duplicate Patients)",0.088
same,Odds Ratio (adjusted),"Week 12, 6 mg vs placebo, All Randomized (includes Duplicate Patients)",0.647
same,"CSBM Weekly Responders, n (%)",[16],155 (32.9) n (%)
same,"Non-Responders, n (%)",[16],316 (67.1) n (%)
same,"CSBM Weekly Responders, n (%)","Week 12, 6 mg, ITT Population",151 (33.6) n (%)
same,"Non-Responders, n (%)","Week 12, 6 mg, ITT Population",298 (66.4) n (%)
same,"CSBM Weekly Responders, n (%)",[17],150 (33.9) n (%)
same,"Non-Responders, n (%)",[17],293 (66.1) n (%)
same,"CSBM Weekly Responders, n (%)",[18],300 (31.9) n (%)
same,"Non-Responders, n (%)",[18],641 (68.1) n (%)
same,Difference in Proportions (adjusted),"Week 12, 3 mg minus placebo, ITT Population-Excluding Duplicate Patients",0.066
same,Difference in Proportions (adjusted),"Week 12, 3 mg minus placebo, ITT Population",0.062
same,Odds Ratio (adjusted),"Week 12, 3 mg vs placebo, ITT Population-Excluding Duplicate Patients",0.724
same,Odds Ratio (adjusted),"Week 12, 3 mg vs placebo, ITT Population",0.737
same,Difference in Proportions (adjusted),"Week 12, 6 mg minus placebo, ITT Population-Excluding Duplicate Patients",0.082
same,Difference in Proportions (adjusted),"Week 12, 6 mg minus placebo, ITT Population",0.082
same,Odds Ratio (adjusted),"Week 12, 6 mg vs placebo, ITT Population-Excluding Duplicate Patients",0.673
same,Odds Ratio (adjusted),"Week 12, 6 mg vs placebo, ITT Population",0.672
same,"CSBM Weekly Responders, n (%)",[19],290 (33.1) n (%)
same,"Non-Responders, n (%)",[19],587 (66.9) n (%)
same,"CSBM Weekly Responders, n (%)",[20],291 (32.6) n (%)
same,"Non-Responders, n (%)",[20],601 (67.4) n (%)
